These are literature values, as cited in US5093322A, “Tick-derived amblyommin and method of antithrombin therapy” (Hoechst Aktiengesellschaft, priority 1988, dated 1992).

Data set [1] concerns thrombin.
For data set [2] the following is noted: in vivo.

As for hirudin, in data set [1], the “thrombin inhibition, specificity” value is given as “highly specific thrombin inhibitor”. Moreover, the half-life result in data set [2] is given as “relatively short half-life”.
